Values of other authors, collected in patent publication US20160089381A1, “STABILITY OF PROGESTOGEN FORMULATIONS” (Novo Nordisk HealthCare AG, priority 2003, published 2016).

System: endometrium
Settings: dose equivalent to 1 mg NETA

Row | Structure (SMILES) | Endometrium transformation dosage [mg]
1 | CC(=O)O[C@]1(C(C)=O)CC[C@H]2[C@@H]3C=C(Cl)C4=CC(=O)[C@@H]5C[C@@H]5[C@]4(C)[C@H]3CC[C@@]21C [cyproterone acetate] | 1
2 | CC(=O)O[C@]1(C(C)=O)CC[C@H]2[C@@H]3C[C@H](C)C4=CC(=O)CC[C@]4(C)[C@H]3CC[C@@]21C [medroxyprogestogen acetate] | 5
